What was measured:
human PDE4B1 = molecular target: T1, human PDE4B1 (Homo sapiens, UniProt Q07343); experiment: cAMP HTRF assay to determine the activity of hPDE4B1; assay type: biochemical; details: 1 μM test concentration; human recombinant PDE4B1, cAMP 40 nM; read-out: Inhibition at 1 μM test concentration [%] (Percentage inhibition of PDE4B)
T1 construct: host or cells: Sf9 cells
Method: cAMP HTRF® Assay to Determine the Activity of hPDE4B1
The inhibiting effect of the compounds on the enzyme activity of human PDE4B1 was measured by the quantification of 5′-adenosine monophosphate (5′-AMP), which is formed from 3′,5′-adenosine monophosphate (cAMP). Human recombinant enzyme, expressed in Sf9 cells, and the HTRF (homogeneous time-resolved fluorescence) detection method were used in the assay.
The test compound or water (control) was mixed with the human recombinant PDE4B1 enzyme (4.8 U) in a buffer consisting of 44.4 mM tris-HCl, 5.28 mM MgCl2, 2.64 mM DTT and 0.044% Tween 20 (pH 7.8). After adding the cAMP enzyme substrate (final concentration 40 nM) the mixture was incubated for 30 minutes at room temperature. Then a fluorescence acceptor (Dye2 marked with cAMP), a fluorescence donor (anti-cAMP antibody marked with a europium cryptate) and the non-specific phosphodiesterase inhibitor IBMX (3-isobutyl-1-methylxanthine; final concentration 1 mM) were added. After 60 minutes the fluorescence transfer, which correlates with the amount of remaining cAMP, was measured with a microplate reader (Rubystar, BMG) at λex=337 nm, λem=620 nm and λem=665 nm. The enzyme activity was calculated from the quotient formed from the measured signal at 665 nm and that at 620 nm. The result was expressed as the percentage inhibition of enzyme activity of the control (without PDE4 inhibitor) (literature: N. Saldou et al., Comparison of recombinant human PDE4 isoforms: interaction with substrate and inhibitors, Cell. Signal. Vol. 10, No. 6, 427-440, 1998). The enzyme was omitted for measurement of the basal control.

T1 sequence (Q07343 whole entry): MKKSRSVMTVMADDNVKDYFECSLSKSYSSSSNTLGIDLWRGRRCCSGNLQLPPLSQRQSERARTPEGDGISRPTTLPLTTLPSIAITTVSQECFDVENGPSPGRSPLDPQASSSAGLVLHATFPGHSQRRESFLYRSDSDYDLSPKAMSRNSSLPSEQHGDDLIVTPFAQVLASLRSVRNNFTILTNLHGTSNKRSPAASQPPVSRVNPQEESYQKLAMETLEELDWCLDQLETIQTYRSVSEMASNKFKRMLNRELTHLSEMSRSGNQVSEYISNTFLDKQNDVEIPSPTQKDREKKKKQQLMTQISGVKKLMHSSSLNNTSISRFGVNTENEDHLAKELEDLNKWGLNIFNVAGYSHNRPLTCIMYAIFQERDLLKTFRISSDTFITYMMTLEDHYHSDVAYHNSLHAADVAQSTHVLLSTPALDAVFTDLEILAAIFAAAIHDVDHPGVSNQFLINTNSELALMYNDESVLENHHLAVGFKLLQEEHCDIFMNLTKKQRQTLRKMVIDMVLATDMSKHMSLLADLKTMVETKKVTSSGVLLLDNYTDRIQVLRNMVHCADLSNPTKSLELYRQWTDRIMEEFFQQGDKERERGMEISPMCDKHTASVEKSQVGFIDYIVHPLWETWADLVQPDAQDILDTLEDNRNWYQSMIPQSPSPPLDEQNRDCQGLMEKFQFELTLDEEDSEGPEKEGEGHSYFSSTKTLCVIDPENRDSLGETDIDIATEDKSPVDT

inhibition at 1 µM (human PDE4B1)	melting point	Structure (SMILES)
68%	263 to 264 °C	COc1ccc(-c2nc3c(c(Oc4ccc(CC(=O)O)cc4)n2)CCC3)cc1Br [Compound 14, 2-(4-(2-(3-Bromo-4-methoxyphenyl)-6,7-dihydro-5H-cyclopenta[d]pyrimidin-4-yloxy)phenyl)acetic acid]
42%	–	O=C(O)Cc1ccc(Oc2nc(-c3cccc(Br)c3)nc3c2CCC3)cc1 [Compound 54, 2-(4-((2-(3-Bromophenyl)-6,7-dihydro-5H-cyclopenta[d]pyrimidin-4-yl)oxy)phenyl)acetic acid]
65%	–	Cc1ccc(-c2nc3c(c(Oc4ccc(CC(=O)O)cc4)n2)CCC3)s1 [Compound 58, 2-(4-((2-(5-Methylthiophen-2-yl)-6,7-dihydro-5H-cyclopenta[d]pyrimidin-4-yl)oxy)phenyl)acetic acid]
62%	–	CC1Cc2nc(-c3ccc(Cl)s3)nc(Oc3ccc(CC(=O)O)cc3)c2C1 (centres unmarked) [Compound 59, 2-(4-((2-(5-Chlorothiophen-2-yl)-6-methyl-6,7-dihydro-5H-cyclopenta[d]pyrimidin-4-yl)oxy)phenyl)acetic acid]
